This is an account of results in patent US6955908B1, “Organism associated with nongonococcal urethritis” (priority 2000, dated 2005).

The conditions of test [1]: cited from earlier work.
The next test concerns Chlamydia. The settings on record: single dose (Martin); cited from earlier work.
Another test deals with Ureaplasma. To be noted: Stamm and colleagues; cited from earlier work.
The test system of test [2] is SPR (Spiky Rotating Cells). Description: Treatment of patients with SPR infection. The settings on record: oral treatment of patients. The format is in vivo, human. An excerpt:
My discovery of the novel SPR organism also provides for the treatment of SPR infections in male and female patients. The method involves first diagnosing the SPR infection, and then, upon obtaining a positive diagnosis, administering to the patient an SPR-inhibiting amount of an anti-SPR agent selected from the group consisting of itraconazole, ofloxacin, metronidazole.
One such drug is itraconazole, sold under the trade name SPORANOX®, available from Jansen Pharmaceuticals. The patient ingests one 200 mg tablet per day for three-four weeks.
The patient takes 500 mg twice per day for six weeks.
Yet another drug that is effective in treating SPR infection is ofloxacin, sold under the trade name FLOXIN®. The patient takes 400 mg twice per day for two weeks.

SMILES strings stand for the structures.

Turning to `CC[C@H]1OC(=O)[C@H](C)[C@@H](O[C@H]2C[C@@](C)(OC)[C@@H](O)[C@H](C)O2)[C@H](C)[C@@H](O[C@@H]2O[C@H](C)C[C@H](N(C)C)[C@H]2O)[C@](C)(O)C[C@@H](C)CN(C)[C@H](C)[C@@H](O)[C@]1(C)O` [Azithromycin], in test [1] (Stamm and colleagues), the “cases of NGU cured” value is reported as 78% and the “overall effectiveness in NGU compared with Doxycycline” value is reported as “overall as effective as Doxycyline”. In addition, in the test with Chlamydia, the “efficacy in uncomplicated chlamydial urethritis compared with Doxycycline” value is recorded as “comparable to Doxycycline”. Further, in the test with Ureaplasma, the “Ureaplasma cases that responded” value is on record as 47%.

For the compound `Cc1ncc([N+](=O)[O-])n1CCO` [metronidazole], the “effectiveness in treating infection with SPR” value in test [2] is given as “can be used to treat SPR infection”. The “clinical efficacy in refractory cases” value in test [1] (refractory cases, smaller series (Toth)) is reported as “good clinical efficacy”.
